We go through six molecules from patent US20200367493A1, “BIOCONTROL ENHANCERS” (YEDA RESEARCH AND DEVELOPMENT CO. LTD., priority 2016, published 2020).

Entries after “also recorded” stand apart in the source; their conditions may differ.

One assay concerns sinI. Put plainly: sinI transcription, sinI promoter fused to luciferase reporter. Type of assay: cell-based, Bacillus subtilis. The note with it: 1 μM; PsinI-luciferase, luminescence divided by OD600. As to the method: (§1) Planktonic growth, attachment to surfaces, induction of extracellular matrix genes tapA-sipW-tasA operon sinI regulator involved in biofilm formation, and biofilm development was measured and compared amongst the natural compounds identified by the screen. For the analysis for enhancement of biofilm formation and transcription of matrix genes 1 uM aqueous solutions comprising each natural compound were tested.
(§2) Gene expression: Gene expression was measure using reporter genes (luciferase or green fluorescent protein) Luminescence of a strains harboring sacA: PsinI-luciferase was measure in the presence or absence of 1 μM of the natural compounds presented in FIGS. 2A and 2B. Fluorescence of a strain harboring sacA::PtapA-gfp was measured in presence or absence of 1 μM of the natural compounds shown in FIGS. 2A and 2B. Results are a representative of six independent experiments; the SD represents an average of 5 wells.
(§3) The expression of SinI, the matrix regulator, was measured as was the expression of tapA-sipW-tasA operon, in the absence and presence of the natural compounds listed in FIG. 2B. Specifically, sinI transcription was monitored. SinI transcription is a direct readout for the activity of the genetic pathway resulting in matrix production and biofilm formation. sinI transcription in biofilm-inducing medium was monitored using the sinI promoter fused to luciferase.
On the technique in general: Reporter assays use an easily measured gene product as a stand-in for the process of interest.

For another assay, the system named is tapA-sipW-tasA operon. Description: tapA-sipW-tasA transcription, PtapA-gfp reporter. The following applies: B. subtilis; matrix genes (sinI, tapA reporters); 1 μM. Type of assay: cell-based, Bacillus subtilis. How it is done:
as §1, §2, §3

The test system of another assay is B. subtilis 3610. Description: Pellicle assay (floating biofilm formation in MSgg medium). The following applies: for biofilm formation (promotion/induction/enhancement): B. subtilis 3610, 1 μM of the natural compound, compared with not treated; for pellicle formation (inhibition): B. subtilis, 1 μM. Type of assay: cell-based, Bacillus subtilis. An excerpt: B. subtilis, NCBI 3610 (hereafter referred to as “3610”), forms robust and highly structured biofilms in liquid medium. When inoculated into a standing culture of minimal medium, 3610 initially grows planktonically as motile, single cells. The cells then migrate to the air-liquid interface, where they proliferate as long chains of non-motile cells. These chains are highly ordered in parallel patterns and are bound together tightly, presumably by an extracellular matrix (ECM), to form a floating biofilm (pellicle). Growth of the bundled chains continues, giving rise to larger biofilm structures that include the fruiting bodies. Thus, we consider pellicles as a highly robust setting for the study of B. subtilis biofilms
Two different assays were used to screen a natural compounds library (AnalytiCon Discovery GmbH Germany (http://www.ac-discovery.com/) for biofilm formation. A Petri Assay was used to observed changes in structure and size of biofilms, while a Pellicle Assay was used to study biofilm inhibitors and biofilm induction (FIG. 1).
The protocol for the pellicle essay comprised the following steps:
A 2× solution of rich, defined biofilm-inducing MSgg medium (Branda, S. S., Gonzalez-Pastor, J. E., Ben-Yehuda, S., Losick, R. & Kolter, R. Fruiting body formation by Bacillus subtilis. Proceedings of the National Academy of Sciences of the United States of America 98, 11621-11626, doi:10.1073/pnas.191384198 (2001)), without the calcium chloride and iron(III) chloride hexahydrate was prepared. After filter sterilization, the calcium chloride was added. The medium was ready to use directly or it could be stored at 4° C. in the dark.
A 1× dilution medium was prepared on the day of the experiment. The 2× MSgg medium was diluted to 1× with sterile distilled water (pellicles) or sterile 3% hot (80° C.) agar (biofilms) and iron(III) chloride hexahydrate added to a final concentration of 50 μM (pellicles) or […] (biofilms). Molecules for screening were then added.
Compared to the original MSgg recipe (Branda, S. S., et al. (2001) ibid), the medium used contained 50 μg/ml threonine and the iron concentration to grow biofilm colonies on solid MSgg medium was increased 2.5× to optimize the wrinkled colony morphology. After solidification of the agar, dry the solid MSgg plates in a biological hood for 30-45 min prior to the inoculation.
The next step was to streak out B. subtilis from a −80° C. stock (a LB culture of 10^9 cells/ml frozen in 20% glycerol) to isolate single colonies on a LB-1.5% agar plate with a sterile tip or applicator stick. Cultures were grown overnight at 30° C.
Following this, a single colony was picked from the LB-1.5% agar plate for growth in 3 ml LB broth at 37° C. for 4 hours in a shaking incubator (shaking speed 200 rpm) The LB broth was replaced with biofilm-inducing MSgg medium prior to inoculation by centrifuging 1 ml starter culture for 3 min at 6000 g, carefully removing the supernatant and re-suspending the pellet in 1 ml MSgg medium. The rest of the culture can be discharged.
During the growth of the starter culture, a 12-well cell-culture multidish plate containing 3 ml of MSgg medium without or with a concentration range of the small molecules (natural products to be tested) was prepared. To rule out edge effects, the location of the different concentrations was distributed across the multidish plate. Alternatively, use 24-well cell-culture multidish plates containing 1.5 ml of MSgg medium was used.
The wells of the 12-well cell-culture multidish plate were inoculated with […] of the washed starter culture (1:1000 dilution). In certain embodiments, a lower dilution ratio, i.e. 1:500 could be used. This decreases the development time of the pellicles.
Grow the pellicles at 23° C. was under static conditions for three days. The pellicles were no moved during this time, as it could affect the final surface morphology of the pellicle.
Pictures of the pellicles were taken with a high resolution camera. […]

A further assay concerns P. sytingae pv tomato. Description: Submerged biofilm formation, crystal violet staining of attached cells. Type of assay: cell-based. An excerpt:
Similar to Example 1, a Pellicle Assay was used to study biofilm inhibitors (FIG. 1). Analysis of submerged biofilm formation by P. sytingae pv tomato included staining attached cells with crystal violet and quantified as known in the art (Mol Microbiology 28:449-461).

The subject of another assay is B. subtilis. Description: Planktonic growth. The following applies: 1 μM. Type of assay: cell-based, Bacillus subtilis. As to the method: as §1

`COc1cc2oc(-c3ccc(O)c(O)c3)c(OC)c(=O)c2c(O)c1OC` [2-(3,4-dihydroxyphenyl)-5-hydroxy-3,6,7-trimethoxy-4H-chromen-4-one]: the “transcription of sinI” value in the assay with sinI is reported as “significantly enhanced”. In addition, the “transcription expression of matrix genes” value in the assay with tapA-sipW-tasA operon is listed as “enhance transcription expression of matrix genes”. The “biofilm formation (promotion/induction/enhancement)” value with B. subtilis 3610 is “enhance biofilm formation; also recorded: promoted, induced, and enhanced”.

As to `COc1cc(O)c2c(=O)c(O[C@@H]3O[C@H](CO)[C@@H](O)[C@H](O)[C@H]3O[C@@H]3O[C@H](CO)[C@@H](O)[C@H](O)[C@H]3O)c(-c3ccc(O)c(O)c3)oc2c1` [3-(((2S,3R,4S,5S,6R)-4,5-dihydroxy-6-(hydroxymethyl)-3-(((2S,3R,4S,5S,6R)-3,4,5-trihydroxy-6-(hydroxymethyl)tetrahydro-2H-pyran-2-yl)oxy)tetrahydro-2H-pyran-2-yl)oxy)-2-(3,4-dihydroxyphenyl)-5-hydroxy-7-methoxy-4H-chromen-4-one], the “transcription of sinI” value with sinI is on record as “significantly enhanced”. Besides, the “transcription expression of matrix genes” value with tapA-sipW-tasA operon is reported as “enhance transcription expression of matrix genes”. For the same molecule, the “biofilm formation (promotion/induction/enhancement)” value in the assay with B. subtilis 3610 is “enhance biofilm formation; also recorded: promoted, induced, and enhanced”.

`CCCCCc1cc(O)c(C/C=C(\C)CCC=C(C)C)c(O)c1` [(E)-2-(3,7-dimethylocta-2,6-dien-1-yl)-5-pentylbenzene-1,3-diol]: in the assay on P. sytingae pv tomato, the “attachment in the plant pathogen (inhibition)” value was “strongly inhibited attachment”. Further, the “pellicle formation (inhibition)” value in the assay on B. subtilis 3610 is on record as “blocked pellicle formation; also recorded: mildly inhibited”. Moreover, the “effect on planktonic growth” value with B. subtilis is given as “inert to planktonic growth”.

With `C=C[C@H]1[C@H](OC2OC(CO)C(O)C(O)C2O)OC=C(C(=O)OC)[C@H]1CCOC(=O)c1cc(O)c(O)c(O)c1` (stereo partly drawn) [cornuside, (2S,3R,4S)-methyl 2-((3,4,5-trihydroxy-6-(hydroxymethyl)tetrahydro-2H-pyran-2-yl)oxy)-4-(2-((3,4,5-trihydroxybenzoyl)oxy)ethyl)-3-vinyl-3,4-dihydro-2H-pyran-5-carboxylate], the “transcription of sinI” value in the assay on sinI is given as “significantly enhanced”. The “transcription expression of matrix genes” value in the assay with tapA-sipW-tasA operon is “enhance transcription expression of matrix genes”. The “biofilm formation (promotion/induction/enhancement)” value in the assay with B. subtilis 3610 was “enhance biofilm formation; also recorded: promoted, induced, and enhanced”.

As for `COc1cc(-c2cc(=O)c3c(O)c(OC)c(OC)c(O)c3o2)ccc1O` [isothymonin, 5,8-dihydroxy-2-(4-hydroxy-3-methoxyphenyl)-6,7-dimethoxy-4H-chromen-4-one], in the assay on sinI, the “transcription of sinI” value was “significantly enhanced”. The “transcription expression of matrix genes” value in the assay with tapA-sipW-tasA operon is “enhance transcription expression of matrix genes”. In addition, in the assay with B. subtilis 3610, the “biofilm formation (promotion/induction/enhancement)” value is “enhance biofilm formation; also recorded: promoted, induced, and enhanced”.

Consider eupahakonenin B, for which the “pellicle formation (inhibition)” value with B. subtilis 3610 was “blocked pellicle formation”. Moreover, the “effect on planktonic growth” value with B. subtilis was “inert to planktonic growth”.
